Measurements as given in patent US4251628A, “Substrates for angiotensin converting enzyme” (priority 1978, dated 1981).

Key:
[1] = system: angiotensin converting enzyme (ACE); test: ACE-catalyzed hydrolysis: Km, pH, chloride and buffer dependence; format: biochemical; settings: by substrate
Text: (§1) Reaction conditions optimal for carrying out an ACE catalyzed hydrolysis of a substrate of the present invention are the same as have been previously described for substrates known in the prior art. Detailed studies of optimal conditions using HipGlyGly as substrate have been reported by Dorer, et al. The pH optimum is approximately 8.0 although greater than 50% maximal activity is obtained in the pH range 7.0-9.0, in the presence of 1 M NaCl. […] The relationship between the chloride requirement and the ionic strength requirement has not been fully characterized. […] Phosphate is inhibitory. Hepes, bicine and barbital buffers are suitable for use but Hepes is preferred because it provides maximum activity. Preferred conditions of buffer composition, ionic strength, pH and temperature are described in Example 1. […] The pH range for usable enzyme activity is from pH 6.5 to pH 8.7, with a broad plateau of maximal activity ranging from pH 7.2 to pH 8.5. Optimal substrate concentration depends upon the apparent Km, for the substrate compared with the Km's of possible competing substances in the sample. A substrate having a relatively low Km, such as ^3 H-benzoylProPheArg (Km 2×10^-4 M) could be suitably used at a concentration less than its Km. A substrate having a higher Km might better be used at a concentration greater than its Km. […] Because its Km is the lowest of any of the substrates of the present invention, ^3 H-benzoylProPheArg is the most preferred substrate for assays where ACE activity is low and maximum sensitivity is desired. In addition to being less sensitive to competitive inhibition, assays carried out with this substrate are potentially able to measure lower levels of ACE than the other substrates disclosed herein. Additionally, its partition behavior in an aprotic organic solvent is extremely favorable: only about 3% entered ethyl acetate in a preliminary extraction experiment. The remnant product Benzoylproline was about 90% extracted.

[2] = system: serum carboxypeptidase; test: Sensitivity to serum carboxypeptidase; format: biochemical
[3] = target: T1, angiotensin converting enzyme (ACE) (Cavia porcellus, UniProt H0UWL7); test: Hydrolysis of ^125I-HPPGlyGlyGly by guinea pig serum ACE; format: biochemical
T1 construct: native circulating soluble form, expected to be shed somatic ACE
T1 sequence (H0UWL7 33-1234): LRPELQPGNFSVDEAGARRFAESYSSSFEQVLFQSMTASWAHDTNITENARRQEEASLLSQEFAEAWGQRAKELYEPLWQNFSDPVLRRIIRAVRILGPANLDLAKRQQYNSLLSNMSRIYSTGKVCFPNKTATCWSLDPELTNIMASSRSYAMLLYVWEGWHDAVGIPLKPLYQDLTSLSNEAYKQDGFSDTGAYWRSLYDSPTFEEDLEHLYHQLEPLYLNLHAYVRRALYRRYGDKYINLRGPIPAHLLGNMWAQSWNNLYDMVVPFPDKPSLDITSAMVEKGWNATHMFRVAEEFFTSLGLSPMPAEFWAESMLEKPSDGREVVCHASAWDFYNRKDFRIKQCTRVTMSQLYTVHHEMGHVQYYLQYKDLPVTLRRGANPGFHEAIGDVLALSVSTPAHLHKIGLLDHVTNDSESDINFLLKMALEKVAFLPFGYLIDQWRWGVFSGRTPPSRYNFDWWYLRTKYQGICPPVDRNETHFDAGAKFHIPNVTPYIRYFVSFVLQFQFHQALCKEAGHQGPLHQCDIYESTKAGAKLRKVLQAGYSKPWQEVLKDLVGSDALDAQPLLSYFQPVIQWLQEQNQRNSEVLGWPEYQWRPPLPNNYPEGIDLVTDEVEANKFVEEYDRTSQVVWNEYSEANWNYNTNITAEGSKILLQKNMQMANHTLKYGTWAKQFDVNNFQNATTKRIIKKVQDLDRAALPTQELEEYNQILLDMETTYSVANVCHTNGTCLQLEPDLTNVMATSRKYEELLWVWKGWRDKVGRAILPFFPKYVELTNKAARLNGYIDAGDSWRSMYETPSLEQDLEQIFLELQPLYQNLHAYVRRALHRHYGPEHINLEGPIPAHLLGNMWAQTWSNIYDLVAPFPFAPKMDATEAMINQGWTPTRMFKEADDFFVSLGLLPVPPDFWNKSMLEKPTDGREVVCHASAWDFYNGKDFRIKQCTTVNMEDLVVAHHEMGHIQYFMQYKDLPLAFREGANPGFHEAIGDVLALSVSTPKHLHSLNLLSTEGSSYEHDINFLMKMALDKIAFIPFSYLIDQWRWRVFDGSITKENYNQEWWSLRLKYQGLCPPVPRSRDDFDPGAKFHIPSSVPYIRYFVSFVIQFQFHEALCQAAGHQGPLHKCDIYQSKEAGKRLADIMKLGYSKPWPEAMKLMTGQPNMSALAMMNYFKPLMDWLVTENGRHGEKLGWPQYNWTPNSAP
Experimental: The standard assay conditions as described in Example 1 were employed except that the source of ACE was guinea pig serum and the amount of substrate added was that amount needed to give 101,436 total counts per minute. In terms of mass, this amount is believed to be well below the Km for the substrate. Samples were incubated for 15 minutes, 30 minutes and 60 minutes, and an unreacted sample (0 time) was used to determine the amount of substrate extracted into ethyl acetate.

[4] = Extraction (partition) into ethyl acetate; format: physicochemical
Text: as §1
The remnant reaction product may be extracted from the reaction mixture by an aprotic organic solvent which affords a reasonably quantitative separation of product from substrate. The use of solvents which may interfere with the counting process is to be avoided. Ethyl acetate is preferred. Approximately 91% of ^3 H-Hippuric acid is extracted into ethyl acetate. Extraction may be carried out by any suitable means familiar to those skilled in the art, such as shaking, agitating, mixing and the like. Separation of the phases is conveniently accomplished by centrifugation. Centrifugation at 1000×G for ten minutes is preferred, either at room temperature or in a refrigerated centrifuge. In some cases, an emulsion will form which can be separated by a longer centrifugation step.
A control determination of background radioactivity was made using 50 μl. of reaction buffer instead of diluted serum in the reaction mixture. The purpose of this control was to determine the number of total counts attributable to background radiation, non-specific release of hippuric acid and the presence of unreacted substrate in the ethyl acetate phase. Less than 7% of the ^3 H-HipGly Gly entered the organic phase. Total radioactivity was determined by counting an amount of substrate equal to that used in the reaction mixture directly in the scintillation counter. […]

[5] = system: angiotensin converting enzyme (ACE); settings: similar reaction conditions, enzyme from hog lung (Dorer et al.); cited from earlier work
[6] = target: T2, angiotensin converting enzyme (ACE) (Homo sapiens, UniProt P12821); test: ACE assay: hydrolysis of ^3H-HipGlyGly by human serum, Lineweaver-Burke Km; format: biochemical
T2 construct: Serum was prepared from fresh whole blood by standard techniques; from tissue; host or cells: serum (unfractionated)
Experimental: The following sample illustrates the preferred assay method, the sensitivity of the assay and the Km for ^3 H-HipGlyGly. The reaction buffer contains 0.05 M Hepes, 0.1 M sodium chloride and 0.6 M sodium sulphate at pH 8.0. (Pepes is N-2-Hydroxyethyl piperazine N'-2-ethane sulfonic acid.) The substrate, ^3 H-HipGlyGly was dissolved in reaction buffer at a concentration of 16 mM and a specific radioactivity of about 0.15 millicuries/millimole. Serum was prepared from fresh whole blood by standard techniques. […] Hemolyzed samples were not used in the assay. Serum samples could be stored at least for one week at 2° C. to 8° C. or for at least 8 weeks frozen, prior to assaying. For the assay, 50 μl. of serum was diluted with 200 μl. of reaction buffer. All the reactions were carried out in glass tubes due to the potentially destructive action of ethyl acetate on plastic.
The reaction mixture was composed of 50 μl. of diluted serum, an appropriate amount of substrate solution depending on the final substrate concentration desired, and reaction buffer sufficient to give a total reaction volume of 100 μl. All reaction tubes were incubated for 60 minutes at 37° C. Reactions were terminated by the addition of 1.0 ml. of 0.1 N hydrochloric acid. The reaction mixture was then extracted with 1.0 ml. ethyl acetate, by rotary agitation for 4-5 seconds. The phases were separted by centrifugation at 1000×G for ten minutes. A 0.5 ml. sample of the ethyl acetate (upper) layer was removed and tranferred to a scintillation vial containing 10 ml. scintillation fluid. (Riafluor, Trademark, New England Nuclear Corp., Boston, Mass.)
A control determination of background radioactivity was made using 50 μl. of reaction buffer instead of diluted serum in the reaction mixture. The purpose of this control was to determine the number of total counts attributable to background radiation, non-specific release of hippuric acid and the presence of unreacted substrate in the ethyl acetate phase. Less than 7% of the ^3 H-HipGly Gly entered the organic phase. Total radioactivity was determined by counting an amount of substrate equal to that used in the reaction mixture directly in the scintillation counter.
Reaction velocity, in terms of nanomoles of product formed per minute per ml of serum was calculated according to the following formula: [formula] In this formula, "nmoles" means nanomoles, "min" means minutes, "ml" means milliliters and "cpm" means radioactivity counts per minute. The factor of 2 is a correction for the aliquot size. In the case where a significant fraction of substrate has been hydrolyzed, and the substrate in one which is more soluble in the organic phase, as for example, ^125 I-HPPGlyGlyGly, a modified formula is used to take account of the decreasing amount of substrate as the reaction progresses: [formula]
Reciprocal values of initial substrate concentration and reaction velocity were calculated and graphed according to the method of Lineweaver and Burke, as shown in FIG. 1. A straight line was obtained, which intercepted the ordinate at a value equal to the reciprocal of the maximum velocity of the enzyme reaction and intercepted the abcissa at a value equal to the negative reciprocal of the apparent Michaelis constant. […] It can be seen that reaction velocities as low as 12 nanomoles of substrate hydrolyzed per minute per ml. of serum can readily be measured.

[7] = system: angiotensin converting enzyme (ACE); settings: HipGlyGly as substrate, cited from earlier work

T2 sequence (P12821 30-1232 limits assumed): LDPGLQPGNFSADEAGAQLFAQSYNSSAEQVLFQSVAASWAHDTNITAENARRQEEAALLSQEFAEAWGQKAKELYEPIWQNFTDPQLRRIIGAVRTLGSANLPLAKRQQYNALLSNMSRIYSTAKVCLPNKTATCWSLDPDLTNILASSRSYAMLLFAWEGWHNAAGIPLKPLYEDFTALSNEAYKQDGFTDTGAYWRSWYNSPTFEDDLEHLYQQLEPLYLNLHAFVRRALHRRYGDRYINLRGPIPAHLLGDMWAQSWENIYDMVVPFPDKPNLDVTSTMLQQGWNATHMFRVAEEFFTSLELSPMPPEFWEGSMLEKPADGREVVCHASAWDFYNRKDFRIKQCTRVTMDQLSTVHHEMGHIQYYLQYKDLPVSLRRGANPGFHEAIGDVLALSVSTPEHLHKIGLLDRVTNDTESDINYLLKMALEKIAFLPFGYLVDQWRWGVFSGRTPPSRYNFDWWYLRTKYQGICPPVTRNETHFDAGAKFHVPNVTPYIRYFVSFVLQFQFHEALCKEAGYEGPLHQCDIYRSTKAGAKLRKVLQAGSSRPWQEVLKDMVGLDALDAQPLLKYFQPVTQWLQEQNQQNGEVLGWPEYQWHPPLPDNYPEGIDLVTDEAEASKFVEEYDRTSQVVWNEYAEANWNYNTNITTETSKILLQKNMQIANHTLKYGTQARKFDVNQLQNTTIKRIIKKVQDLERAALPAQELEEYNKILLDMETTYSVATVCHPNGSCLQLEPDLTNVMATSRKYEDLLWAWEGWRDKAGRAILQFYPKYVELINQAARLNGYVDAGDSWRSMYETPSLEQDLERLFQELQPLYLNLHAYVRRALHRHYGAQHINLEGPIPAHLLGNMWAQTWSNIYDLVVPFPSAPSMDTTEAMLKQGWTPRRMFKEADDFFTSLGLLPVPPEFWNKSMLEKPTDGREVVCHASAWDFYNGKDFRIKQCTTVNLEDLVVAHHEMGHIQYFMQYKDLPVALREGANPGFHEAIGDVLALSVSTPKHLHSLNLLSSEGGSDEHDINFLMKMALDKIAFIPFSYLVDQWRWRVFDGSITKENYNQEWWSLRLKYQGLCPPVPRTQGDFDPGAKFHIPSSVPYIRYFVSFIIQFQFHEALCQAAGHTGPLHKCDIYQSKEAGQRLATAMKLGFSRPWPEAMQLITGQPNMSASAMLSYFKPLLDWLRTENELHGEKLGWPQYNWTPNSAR

## O=C(O)CNC(=O)CNC(=O)CNC(=O)CCc1ccc(O)c([125I])c1 [^125 I-HPPGlyGlyGly, ^125 I-p-hydroxyphenylpropionylglycylglycylglycine]
[1]
  Chloride / ionic strength requirement of the ACE-catalyzed hydrolysis: requires chloride ions
[2]
  Sensitivity to serum carboxypeptidase: insensitive to serum carboxypeptidase
[3]; incubation 0 min
  Net cpm in product: 0 cpm
  cpm in Ethyl Acetate phase: 27,205 cpm
[3]; incubation 15 min
  Net cpm in product: 17,808 cpm
  cpm in Ethyl Acetate phase: 40,000 cpm
[3]; incubation 30 min
  Net cpm in product: 43,804 cpm
  cpm in Ethyl Acetate phase: 59,182 cpm
[3]; incubation 60 min
  Net cpm in product: 58,044 cpm
  cpm in Ethyl Acetate phase: 69,577 cpm
[4]
  Fraction extracted into ethyl acetate: 27.2%

## [3H]c1ccc(C(=O)NCC(=O)NCC(=O)NCC(=O)O)cc1 [^3 H-HipGlyGly, ^3 H-hippurylglycylglycine]
[1]
  Chloride / ionic strength requirement of the ACE-catalyzed hydrolysis: requires chloride ions
[2]
  Sensitivity to serum carboxypeptidase: insensitive to serum carboxypeptidase
[5]
  Km: 2600 µM
[6]; [S] 1.82 mM
  Reciprocal of reaction velocity: 0.0504
  Velocity: 19.83 nanomoles of product formed pe
[6]; [S] 3.64 mM
  Reciprocal of reaction velocity: 0.0289
  Velocity: 34.65 nanomoles of product formed pe
[6]; [S] 5.45 mM
  Reciprocal of reaction velocity: 0.0214
  Velocity: 46.76 nanomoles of product formed pe
[6]; [S] 7.27 mM
  Reciprocal of reaction velocity: 0.0191
  Velocity: 52.48 nanomoles of product formed pe
[6]; [S] 9.09 mM
  Reciprocal of reaction velocity: 0.0183
  Velocity: 54.63 nanomoles of product formed pe
[6]; [S] .91 mM
  Reciprocal of reaction velocity: 0.0810
  Velocity: 12.35 nanomoles of product formed pe
[6]; assay condition of Example 1
  Assay sensitivity (lowest measurable enzyme activity): 8 units of enzyme per ml
[4]
  Fraction extracted into ethyl acetate: Less than 7%
[7]; 1 M NaCl
  pH range with greater than 50% maximal activity: 7.0-9.0
[7]; Dorer et al.
  pH optimum of ACE-catalyzed hydrolysis: approximately 8.0
